Reference: the NIST ThermoML archive (doi:10.1016/j.jct.2017.03.021)
Where “and” joins values, the source holds several entries; their conditions need not be identical. Equal entries are not always repeated.

Tests used:
[1] = Crystal; for vapor or sublimation pressure: Calculated from knudsen effusion weight loss
[2] = Molar enthalpy of transition or fusion; conditions: Crystal; DSC

O=Cc1ccc2c(c1)Cc1ccccc1-2 [9H-fluorene-2-carbaldehyde]
[1]
Conditions	Normal melting temperature [°C]	vapor or sublimation pressure
335.16 K	–	0.000121 kPa and 0.00012 kPa
337.16 K	–	0.000147 kPa and 0.000149 kPa and 0.000144 kPa
339.09 K	–	0.000186 kPa and 0.000185 kPa
341.11 K	–	0.000231 kPa and 0.000233 kPa
341.16 K	–	0.000227 kPa
343.08 K	–	0.000288 kPa and 0.000289 kPa
343.14 K	–	0.000288 kPa
345.09 K	–	0.00036 kPa and 0.000361 kPa and 0.000364 kPa
347.16 K	–	0.000444 kPa and 0.000463 kPa
349.11 K	–	0.000553 kPa and 0.00054 kPa and 0.000557 kPa
351.09 K	–	0.000685 kPa and 0.000687 kPa and 0.000681 kPa
353.1 K	–	0.000861 kPa and 0.000847 kPa and 0.000859 kPa
355.09 K	–	0.001048 kPa and 0.001057 kPa and 0.001075 kPa
DTA	84.5	–

Conditions	Molar enthalpy of transition or fusion [kcal/mol]
[2]	5.26
